Data: patent publication US11753433B2, “Methods of synthesizing substituted purine compounds” (Epizyme, Inc., priority 2013, dated 2023)

Tests used:
Assay type in all cases: physicochemical
[1] = Solution stability
Protocol: 0.1 mg/ml solutions of Form B were prepared in five buffers, including 0.01N HCl (pH 2), 50 mM sodium citrate (pH 4), 50 mM sodium citrate (pH 6), 50 mM sodium phosphate (pH 8), and 50 mM sodium carbonate (pH 10). Methanol was added as a co-solvent to dissolve Form B in buffers (i.e., 10% (v/v) in pH 2, 4, and 6 buffers, 20% (v/v) in pH 8 buffer, and 30% (v/v) in pH 10 buffer). Each buffer solution containing Form B was stored at 3 different temperatures: 25° C., 37° C., and 50° C. Aliquots were taken for HPLC analysis after 1 day and 7 days. pH values were also measured before and after the stability experiments.

[2] = Solubility in Simulated Gastric Fluid (SGF) at 37° C.; settings: for Resulting Solid: XRPD
Protocol: To study if Form A and Form B would perform differently in stomach, the solubilities of Form A and Form B were measured in Simulated Gastric Fluid (SGF, see below for SGF preparation) at 37° C. […] The remaining solids after each time point were subject to XRPD analysis. […] Weigh appropriate amount of hydrochloride (HCl) and sodium chloride (NaCl) into a 1-L flask followed by addition of 1-L deionized water. The mixture was stirred until all solids are dissolved. Check pH value with a pH-meter and adjust the pH to 1.8 with HCl (1N) or NaOH (1N).

[3] = Solid-state stability
Protocol: Chemical Stability: Accurately weighed ˜10 mg Form B was placed into four 10-ml volumetric flasks. The samples were stored at 5° C. closed dish, 25° C./57% RH open dish, 40° C./75% RH open dish, and 60° C. closed dish for 7 days. The sample stored at 5° C. was used as a control. Assay and total related substances for each sample were checked at the end of 7 days.
Physical Stability: Accurately weighed ˜15 mg of Form B was placed into 5-ml glass vials and the samples were stored at 5° C. closed dish, 25° C./57% RH open dish, 40° C./75% RH open dish, and 60° C. closed dish for 7 days. Samples were analyzed by XRPD and TGA (FIG. 24).

[4] = Slurry experiments using Form A and Form B (relative stability)
Protocol: The relative stability between Form A and Form B was investigated by slurry experiments in ACN (containing less than 0.3 wt % water), ACN/H2O (v/v, 3; 1), and H2O at room temperature and 50° C. In general, about 10-30 mg Form A was added to a 5-ml glass vial with 0.5 ml corresponding solvents to get suspensions at room temperature and 50° C., respectively. Then 10-30 mg Form B was added to the suspensions which were kept stirring for 24 h. The water activity was calculated using the UNIFAC model.

[5] = 5° C. Closed Dish, 7 Days (control)
[6] = 25° C./57% RH Open Dish, 7 Days
[7] = 40° C./75% RH Open Dish, 7 Days

For CC(C)N(C[C@H]1O[C@@H](n2cnc3c(N)ncnc32)[C@H](O)[C@@H]1O)[C@H]1C[C@@H](CCc2nc3cc(C(C)(C)C)ccc3[nH]2)C1 [Form B, (2R,3R,4S,5R)-2-(6-amino-9H-purin-9-yl)-5-((((1r,3S)-3-(2-(5-(tert-butyl)-1H-benzo[d]imidazol-2-yl)ethyl)cyclobutyl)(isopropyl)amino)methyl)tetrahydrofuran-3,4-diol trihydrate], the “% area” value ([1]; pH 2, 25° C., 24 h) was 98.7%, the “% claim” value ([1]; pH 2, 25° C., 24 h) was 97.1% and the pH ([1]; pH 2, 25° C., 24 h) was 2.1. The “% area” value ([1]; pH 2, 25° C., 7 days) was 98.5%, the “% claim” value ([1]; pH 2, 25° C., 7 days) was 99.1% and the pH ([1]; pH 2, 25° C., 7 days) was 2.1. For the same molecule, the “% area” value ([1]; pH 2, 37° C., 24 h) was 98.7%, the “% claim” value ([1]; pH 2, 37° C., 24 h) was 96.8% and the pH ([1]; pH 2, 37° C., 24 h) was 2.1. For the same molecule, the “% area” value ([1]; pH 2, 37° C., 7 days) was 98.4%, the “% claim” value ([1]; pH 2, 37° C., 7 days) was 97.5% and the pH ([1]; pH 2, 37° C., 7 days) was 2.1. For the same molecule, the “% area” value ([1]; pH 2, 50° C., 24 h) was 98.3%, the “% claim” value ([1]; pH 2, 50° C., 24 h) was 97.0% and the pH ([1]; pH 2, 50° C., 24 h) was 2.1. The “% area” value ([1]; pH 2, 50° C., 7 days) was 98.4%, the “% claim” value ([1]; pH 2, 50° C., 7 days) was 97.0% and the pH ([1]; pH 2, 50° C., 7 days) was 2.1. The degradation in solution ([1]; pH 2-10 buffers, 25-50° C., up to 7 days) was “less than 5%”, the “% area” value ([1]; pH 4, 25° C., 24 h) was 99.4% and the “% claim” value ([1]; pH 4, 25° C., 24 h) was 97.4%. The pH ([1]; pH 4, 25° C., 24 h) was 4.2, the “% area” value ([1]; pH 4, 25° C., 7 days) was 99.6% and the “% claim” value ([1]; pH 4, 25° C., 7 days) was 100.2%. For the same molecule, the pH ([1]; pH 4, 25° C., 7 days) was 4.2, the “% area” value ([1]; pH 4, 37° C., 24 h) was 99.4% and the “% claim” value ([1]; pH 4, 37° C., 24 h) was 97.6%. The pH ([1]; pH 4, 37° C., 24 h) was 4.1, the “% area” value ([1]; pH 4, 37° C., 7 days) was 99.5% and the “% claim” value ([1]; pH 4, 37° C., 7 days) was 99.0%. For the same molecule, the pH ([1]; pH 4, 37° C., 7 days) was 4.1, the “% area” value ([1]; pH 4, 50° C., 24 h) was 99.4% and the “% claim” value ([1]; pH 4, 50° C., 24 h) was 97.6%. For the same molecule, the pH ([1]; pH 4, 50° C., 24 h) was 4.1, the “% area” value ([1]; pH 4, 50° C., 7 days) was 99.5% and the “% claim” value ([1]; pH 4, 50° C., 7 days) was 98.7%. For the same molecule, the pH ([1]; pH 4, 50° C., 7 days) was 4.2, the “% area” value ([1]; pH 6, 25° C., 24 h) was 99.2% and the “% claim” value ([1]; pH 6, 25° C., 24 h) was 98.0%. For the same molecule, the pH ([1]; pH 6, 25° C., 24 h) was 6.2, the “% area” value ([1]; pH 6, 25° C., 7 days) was 99.5% and the “% claim” value ([1]; pH 6, 25° C., 7 days) was 100.0%. The pH ([1]; pH 6, 25° C., 7 days) was 6.2, the “% area” value ([1]; pH 6, 37° C., 24 h) was 99.3% and the “% claim” value ([1]; pH 6, 37° C., 24 h) was 97.9%. For the same molecule, the pH ([1]; pH 6, 37° C., 24 h) was 6.2, the “% area” value ([1]; pH 6, 37° C., 7 days) was 99.4% and the “% claim” value ([1]; pH 6, 37° C., 7 days) was 99.0%. The pH ([1]; pH 6, 37° C., 7 days) was 6.3, the “% area” value ([1]; pH 6, 50° C., 24 h) was 99.3% and the “% claim” value ([1]; pH 6, 50° C., 24 h) was 98.1%. The pH ([1]; pH 6, 50° C., 24 h) was 6.2, the “% area” value ([1]; pH 6, 50° C., 7 days) was 99.5% and the “% claim” value ([1]; pH 6, 50° C., 7 days) was 98.9%. For the same molecule, the pH ([1]; pH 6, 50° C., 7 days) was 6.2, the “% area” value ([1]; pH 8, 25° C., 24 h) was 99.2% and the “% claim” value ([1]; pH 8, 25° C., 24 h) was 98.0%. For the same molecule, the pH ([1]; pH 8, 25° C., 24 h) was 8.2, the “% area” value ([1]; pH 8, 25° C., 7 days) was 99.5% and the “% claim” value ([1]; pH 8, 25° C., 7 days) was 99.8%. The pH ([1]; pH 8, 25° C., 7 days) was 8.2, the “% area” value ([1]; pH 8, 37° C., 24 h) was 99.5% and the “% claim” value ([1]; pH 8, 37° C., 24 h) was 98.4%. The pH ([1]; pH 8, 37° C., 24 h) was 8.2, the “% area” value ([1]; pH 8, 37° C., 7 days) was 99.5% and the “% claim” value ([1]; pH 8, 37° C., 7 days) was 99.3%. The pH ([1]; pH 8, 37° C., 7 days) was 8.3, the “% area” value ([1]; pH 8, 50° C., 24 h) was 99.5% and the “% claim” value ([1]; pH 8, 50° C., 24 h) was 98.0%. The pH ([1]; pH 8, 50° C., 24 h) was 8.3, the “% area” value ([1]; pH 8, 50° C., 7 days) was 99.5% and the “% claim” value ([1]; pH 8, 50° C., 7 days) was 98.8%. The pH ([1]; pH 8, 50° C., 7 days) was 8.3, the “% area” value ([1]; pH 10, 25° C., 24 h) was 99.4% and the “% claim” value ([1]; pH 10, 25° C., 24 h) was 98.0%. For the same molecule, the pH ([1]; pH 10, 25° C., 24 h) was 10.9, the “% area” value ([1]; pH 10, 25° C., 7 days) was 99.4% and the “% claim” value ([1]; pH 10, 25° C., 7 days) was 99.7%. For the same molecule, the pH ([1]; pH 10, 25° C., 7 days) was 10.9, the “% area” value ([1]; pH 10, 37° C., 24 h) was 99.4% and the “% claim” value ([1]; pH 10, 37° C., 24 h) was 98.2%. For the same molecule, the pH ([1]; pH 10, 37° C., 24 h) was 10.9, the “% area” value ([1]; pH 10, 37° C., 7 days) was 99.4% and the “% claim” value ([1]; pH 10, 37° C., 7 days) was 99.0%. For the same molecule, the pH ([1]; pH 10, 37° C., 7 days) was 10.9, the “% area” value ([1]; pH 10, 50° C., 24 h) was 99.5% and the “% claim” value ([1]; pH 10, 50° C., 24 h) was 97.9%. For the same molecule, the pH ([1]; pH 10, 50° C., 24 h) was 11.0, the “% area” value ([1]; pH 10, 50° C., 7 days) was 99.4% and the “% claim” value ([1]; pH 10, 50° C., 7 days) was 98.9%. For the same molecule, the pH ([1]; pH 10, 50° C., 7 days) was 10.9, the “Final pH” value [2] was 5.3 and the “Resulting Solid” value ([2]; 15 min) was “Type B”. For the same molecule, the “Resulting Solid” value ([2]; 30 min) was “Type B”, the “Resulting Solid” value ([2]; 60 min) was “Type B” and the solubility at 15 min ([2]; Simulated Gastric Fluid (SGF), pH 1.8, simulated gastric fluid, thermodynamic from solid, 15 min, calculated using free base content) was 5400 µg/mL. The solubility at 30 min ([2]; Simulated Gastric Fluid (SGF), pH 1.8, simulated gastric fluid, thermodynamic from solid, 30 min, calculated using free base content) was 5400 µg/mL, the solubility at 60 min ([2]; Simulated Gastric Fluid (SGF), pH 1.8, simulated gastric fluid, thermodynamic from solid, 60 min, calculated using free base content) was 5600 µg/mL and the “Chemical Area % (100% − TRS %)” value [3, 5] was 99.1%. The “Physical TGA (%)” value [3, 5] was 8.63%, the “Physical XRPD” value [3, 5] was “Form B” and the “Chemical % Claim (Cs/Ci × 100%)” value ([3]; 5° C. Closed Dish, 7 Days (used as standard)) was 100.0^& %. For the same molecule, the “Chemical % Claim (Cs/Ci × 100%)” value [3, 6] was 100.7%, the “Chemical Area % (100% − TRS %)” value [3, 6] was 99.0% and the “Physical TGA (%)” value [3, 6] was 8.66%. The “Physical XRPD” value [3, 6] was “Form B”, the “Chemical % Claim (Cs/Ci × 100%)” value [3, 7] was 101.0% and the “Chemical Area % (100% − TRS %)” value [3, 7] was 99.0%. For the same molecule, the “Physical TGA (%)” value [3, 7] was 8.64%, the “Physical XRPD” value [3, 7] was “Form B” and the “Chemical % Claim (Cs/Ci × 100%)” value ([3]; 60° C. Closed Dish, 7 Days) was 100.7%. The “Chemical Area % (100% − TRS %)” value ([3]; 60° C. Closed Dish, 7 Days) was 99.1%, the “Physical TGA (%)” value ([3]; 60° C. Closed Dish, 7 Days) was 8.49% and the “Physical XRPD” value ([3]; 60° C. Closed Dish, 7 Days) was “Form B”. The “water activity at which Form B is thermodynamically more stable than Form A” value ([4]; 50° C.) was ≥ 0.08 and the “water activity at which Form B is thermodynamically more stable than Form A” value ([4]; RT) was ≥ 0.09.
